How the values were obtained:
[1] = test system: TNF-α, IL-1β, IL-6, iNOS, IL-10 mRNA at spinal cord injury site; assay: RT-PCR analysis of cytokine mRNA in injured spinal cord; assay type: in vivo, rat; conditions: 5 nmol/kg tail vein
Experimental: (§1) For the present experiment, male white mice (Sprague-Dawley 240-250 g, 7 weeks, 10 mice) were under general anesthetics by an intraperitoneal injection of Ketamin (80 mg/kg, Yuhan Corporation) and Rompun (7.4 mg/kg, Bayer Korea Corporation). Laminectomy was performed at spine T9-10 level to expose a spinal cord keeping intact dura. And then, rat was put on Spinal cord dropping device (NYU); spine processes at T8 and T11 sites were fixed by using a clamp, respectively; then, a rod (diameter 2 mm, weight 10 g) was dropped from 25 mm height vertical to dorsal part of spinal cord followed by suturing injury site muscle and skin. The rat of Sham-operated control group was performed only laminectomy at same area without damaging spinal cord injury (marked by ‘sham” in figures; hereinafter, the same as above).
(§2) Substance P (marked by ‘SP’ in figures; hereinafter, the same as above) dissolved in saline of 5 nmol/kg concentration was injected through tail vein at immediately, 24 hours, and 48 hours after a spinal cord injury for experimental groups. At sham control group, same volume of saline (marked by ‘vehicle’ in figures; hereinafter, the same as above) without Substance P was injected at same time points. Operation were performed on an electric heating pad of 37° C., and then rat were transferred to cage after awake from the anesthetic. • (2) Preparation of Tissue
Substance P (5 nmol/kg in saline) or saline (the same volume without Substance P) was injected through tail vein at various time points at immediately, 1 d, 2d after operation as (1) of Example 1. At 1 hour, 6 hours, 1 day, 3 days, and 5 days, the experimental group (6 rats/group) and the control (6 rats/group) were sacrificed, respectively. After exposing a spinal cord by laminectomy, spin cord with a length of 1 cm, the injury site between T9-10 as the central, was quickly cut off, and immediately put into liquid nitrogen. Total RNA was extracted by using Trizol reagent (Invitrogen), and the cDNA was synthesized through Reverse transcription process. Then, PCR (Chromagen) was performed using primers of TNF-α IL-1β iNOS. Primer's sequences and PCR conditions were as follows.

[2] = test system: spinal cord injury site tissue; assay: Immunofluorescence staining of CSPG, CD206, GFAP, NF200 after spinal cord injury; assay type: in vivo, rat; conditions: tail vein injection
Experimental: as §1, §2
Then, perfusion was performed by opening the of heart and pumping 200 ml of a physiological saline and 4% paraformaldehyde (Sigma) through right atrium of heart. Then, a segment of spinal cord with injury site was removed and put in 4% paraformaldehyde at 4° C. for 6 hours. Subsequently, spinal cords were washed with saline, and placed in 30% sucrose (Sigma) solution at 4° C. overnight. Next day, spinal cords were cut in a length of 1.5 cm in which the injured site is localized in epicenter followed by embedding in OCT compound (optimal cutting temperature compound, Sakura). The fixed tissues were cut in a thickness of 10 μm (Longitudinal section) or 20 μm (cross section) with Cryostat (Leica) and attached to slide. Finally, slides were stored at −80° C. • (3) Immunofluorescence Staining
The selected sections for immunofluorescence staining were washed with saline for three times, and blocked with 10% horse serum (Jackson ImmunoResearch) for 1 hour at a room temperature. ED1 antibody (1:200, Milipore), a marker for activated microglia/macrophage, was treated and placed at 4° C. overnight. Next day, slides were washed with saline, and treated with a secondary antibody conjugated with Alexa Fluor 488 (1:400, Invitrogen) or cyanine 3 (1:500, Jackson ImmunoResearch) for 1 hour at room temperature. […]

[3] = 1 hour after spinal cord injury, vs control
[4] = two weeks after spinal cord injury

Substance P
expression of IL-1β mRNA [1, 3]: slightly decreased
expression of IL-6 mRNA [1, 3]: slightly decreased
expression of TNF-α mRNA [1, 3]: slightly decreased
expression of iNOS mRNA [1, 3]: slightly decreased
increase of expression of IL-10 mRNA ([1]; 6 hours after spinal cord injury, vs control): at least 17 times
expression of iNOS ([1]; one day after spinal cord injury): surely decreased
expressions of inflammatory cytokines (TNF-α, IL-1β, IL-6, iNOS mRNAs) ([1]; other times than 1 hour, between two groups): do not have a difference
expression of IL-10 mRNA ([1]; up to 3 day after spinal cord injury, vs control): persist increasing level
GFAP-positive cells distribution ([2]; after spinal cord injury): excluded from CD206-positive spinal cord injury site
CD206 and ED1 double-positive cells [2, 4]: gathered around an injury site
CSPG-positive signal around an injury site [2, 4]: significantly decreased
neurofilament protein ([2]; vs control, exposed to CD206-positive cell field): well preserved
